Measurements reported in patent US20060079453A1, “Hla binding peptides and their uses” (priority 2002, published 2006).
Where “and” joins values, the source holds several entries; their conditions need not be identical. Identical values can stand only once. Like-named read-outs stand apart in the source and are kept apart here. No end group written: not given here.

Assays:
[1] = molecular target: HLA-A*0101 (Homo sapiens, UniProt P04439, A114D/A174V/A182V/D101N/D185E/E176A/E190D/L180R/Q94H/R68K/S129P/T187R/V100A/V91M/W191G); experiment: biochemical; format: binding
[2] = molecular target: HLA-A*3002 (Homo sapiens, UniProt P04439, D101N/D140H/D185E/E176R/F33S/G80R/H175R/K168Q/Q94H/R138E/R41S/V100E); experiment: biochemical; format: binding
[3] = molecular target: HLA-A*2902 (Homo sapiens, UniProt P04439, A270S/D101N/D185E/E176V/E277Q/E87Q/F33T/G231S/H175R/I121M/I218V/I322F/K168Q/L300P/L318F/M331R/P208A/P217A/Q86L/T323A/T345S/V100A/V358M); experiment: MHC molecular binding / Capture assay, IC50: A*2902; conditions: Binding affinity to A*2902 (expressed as an IC50)
[4] = molecular target: HLA-B*4403 (Homo sapiens, UniProt P01889, A223V/A65T/A93T/A95T/D201E/D98Y/E176V/E187L/E204Q/E69K/G107R/H137Y/K202T/L105A/L119I/N104T/N87E/Q56L/Q94N/R106L/R155S/R180L/S101N/S121R/S35A/S48T/T118I/V36M/W191S/Y140D/Y91S); experiment: biochemical; format: binding
[5] = molecular target: HLA-B*4501 (Homo sapiens, UniProt P01889, A329T/A65T/A93T/A95T/C349S/D138N/D201E/D98Y/E176V/E187L/E204Q/E69K/H137Y/K202T/L119W/N87E/Q56L/Q94N/R155S/R180D/S121R/S35A/S48T/V127L/V306I/V36M/W191S/Y140L/Y33H/Y91S); experiment: biochemical; format: binding
[6] = molecular target: HLA-B*1801 (Homo sapiens, UniProt P01889, A329T/A93T/A95T/C349S/D201E/D54G/D98Y/E176V/E187T/E204Q/E69T/K202T/Q94N/R155S/R180L/S121R/V306I/Y140S/Y195H/Y33H/Y91S); experiment: biochemical; format: binding
[7] = molecular target: HLA-B*4002 (Homo sapiens, UniProt P01889, A65T/A93T/A95T/D138N/D201E/D98Y/E176V/E204Q/E69K/K202T/N87E/Q56L/Q94N/R180L/S48T/Y33H/Y91S); experiment: biochemical; format: binding
[8] = molecular target: HLA-B*4402 (Homo sapiens, UniProt P01889, A223V/A65T/A93T/A95T/D201E/D98Y/E176V/E187L/E204Q/E69K/G107R/H137Y/K202T/L105A/L119I/N104T/N87E/Q56L/Q94N/R106L/R155S/R180D/S101N/S121R/S35A/S48T/T118I/V36M/W191S/Y140D/Y91S); experiment: biochemical; format: binding
[9] = molecular target: HLA-B*4001 (Homo sapiens, UniProt P01889, A65T/A93T/A95T/D138N/D98Y/E176V/E69K/N87E/Q56L/Q94N/R180L/S121R/S35A/S48T/T167S/V36M/W171L/Y33H/Y91S); experiment: biochemical; format: binding
[10] = Binding affinity to A*0101 (expressed as an IC50)

Molecule	IC50 [1, 10]	IC50 [4]	IC50 [5]	IC50 [6]	IC50 [7]	IC50 [8]	also measured
CC(C)C[C@H](NC(=O)[C@H](C)N)C(=O)N[C@@H](Cc1ccccc1)C(=O)N[C@@H](CCC(N)=O)C(=O)N[C@@H](CCC(=O)O)C(=O)N[C@@H](Cc1ccc(O)cc1)C(=O)N[C@@H](CCC(N)=O)C(=O)N[C@@H](CS)C(=O)N[C@@H](Cc1ccc(O)cc1)C(=O)O	> 42000 nM						
CC[C@H](C)[C@H](NC(=O)[C@@H](NC(=O)[C@H](CC(C)C)NC(=O)[C@H](CC(=O)O)NC(=O)[C@@H](NC(=O)[C@@H](N)Cc1ccccc1)[C@@H](C)O)[C@@H](C)O)C(=O)N[C@H](C(=O)N[C@@H](Cc1ccc(O)cc1)C(=O)O)C(C)C	16 nM and 34 nM						IC50 [2]: 39000 nM
C[C@H](NC(=O)[C@H](Cc1c[nH]c2ccccc12)NC(=O)[C@H](Cc1ccc(O)cc1)NC(=O)[C@H](CC(=O)O)NC(=O)[C@H](Cc1ccc(O)cc1)NC(=O)[C@@H](NC(=O)CN)[C@@H](C)O)C(=O)NCC(=O)N[C@@H](Cc1ccc(O)cc1)C(=O)O	141 nM						
CC[C@H](C)[C@H](NC(=O)[C@H](CO)NC(=O)[C@H](Cc1c[nH]cn1)NC(=O)[C@@H](NC(=O)[C@H](CO)NC(=O)[C@@H](N)CC(C)C)C(C)C)C(=O)N[C@@H](CCC(N)=O)C(=O)N[C@@H](CC(N)=O)C(=O)N[C@@H](CC(=O)O)C(=O)N[C@@H](Cc1ccc(O)cc1)C(=O)O	279 nM						
CC(C)C[C@H](NC(=O)[C@H](CC(=O)O)NC(=O)[C@H](CC(C)C)NC(=O)[C@@H](NC(=O)[C@H](Cc1ccc(O)cc1)NC(=O)[C@H](CCC(=O)O)NC(=O)[C@H](CCCCN)NC(=O)[C@H](CC(C)C)NC(=O)[C@@H](NC(=O)[C@@H]1CCCN1)[C@@H](C)O)C(C)C)C(=O)N[C@@H](Cc1ccc(O)cc1)C(=O)O	426 nM						IC50 [3]: 805 nM
AADAAAAKY	20 nM						
AEDLWVTVY							IC50 ([4]; B*4403): 469 nM; IC50 ([5]; B*4501): 1840 nM; IC50 ([6]; B*1801): 354 nM; IC50 ([7]; B*4002): 3520 nM; IC50 ([8]; B*4402): 2330 nM
AEIPKLAYF							IC50 ([4]; B*4403): 57 nM; IC50 ([5]; B*4501): 608 nM; IC50 ([6]; B*1801): 1640 nM; IC50 ([9]; B*4001): 57 nM; IC50 ([7]; B*4002): 5.6 nM; IC50 ([8]; B*4402): 229 nM
AEMGKFKFSY							IC50 ([4]; B*4403): 28 nM; IC50 ([5]; B*4501): 283 nM; IC50 ([6]; B*1801): 1520 nM; IC50 ([7]; B*4002): 622 nM; IC50 ([8]; B*4402): 146 nM
AENKWVTVY		540 nM	297 nM	781 nM	534 nM	294 nM	IC50 [9]: 11300 nM
AENLNVTVY		358 nM	2440 nM	198 nM	3540 nM	447 nM	IC50 [9]: 564 nM
AENLWVTTY		26 nM	48 nM	28 nM	191 nM	37 nM	IC50 [9]: 280 nM
AENLWVTVC		2270 nM	146 nM	178000 nM	1420 nM	5590 nM	
AENLWVTVE		2570 nM	246 nM	> 258000 nM	1360 nM	8910 nM	IC50 [9]: 3890 nM
AENLWVTVM		35 nM	50 nM	508 nM	6.1 nM	195 nM	IC50 [9]: 13 nM
AENLWVTVP		2470 nM	187 nM	38400 nM	339 nM	7720 nM	IC50 [9]: 9710 nM
AENLWVTVQ		188 nM	100 nM	49600 nM	85 nM	1220 nM	
AENLWVTVY							IC50 ([4]; B*4403): 43 nM and 284 nM; IC50 ([5]; B*4501): 68 nM and 200 nM and 301 nM; IC50 ([6]; B*1801): 51 nM and 155 nM and 122 nM; IC50 ([9]; B*4001): 1360 nM and 1580 nM; IC50 ([7]; B*4002): 90 nM and 547 nM; IC50 ([8]; B*4402): 66 nM and 308 nM
AENLYVTVF							IC50 ([4]; B*4403): 47 nM; IC50 ([5]; B*4501): 69 nM; IC50 ([9]; B*4001): 17 nM; IC50 ([7]; B*4002): 3.1 nM; IC50 ([8]; B*4402): 39 nM
AETLWVTVY		221 nM	774 nM	199 nM	198 nM	501 nM	
ATDNYYIVTY	7.4 nM and 19 nM						IC50 [2]: 65 nM
ATELHPEYY	43 nM						IC50 [2]: 1730 nM
ATSNYYIVTY	428 nM						
DENLWVTVY		988 nM		26 nM	41100 nM	4590 nM	IC50 ([5]; read-out: B*4501): 49000 nM; IC50 [9]: > 72700 nM
DLWYYHTQGYY							IC50 ([1]; read-out: Binding affinity to A*0101 (expressed as an IC50)): 5880 nM
EEKPRTLHDL							IC50 ([4]; B*4403): 30000 nM; IC50 ([5]; B*4501): 419 nM; IC50 ([6]; B*1801): > 81600 nM; IC50 ([9]; B*4001): 36200 nM; IC50 ([7]; B*4002): 34000 nM; IC50 ([8]; B*4402): 15200 nM
ETRHYCYSLY	43 nM						IC50 [2]: 10 nM
FENLWVTVY		1310 nM	21400 nM	59 nM	1340 nM	4180 nM	IC50 [9]: 943 nM
GEFPYKAAA							IC50 ([4]; B*4403): 2540 nM; IC50 ([5]; B*4501): 11 nM; IC50 ([9]; B*4001): 170 nM; IC50 ([7]; B*4002): 3.9 nM; IC50 ([8]; B*4402): 746 nM
